# Experimental data as given in US20070270350A1, “Methods and Compositions for the Prevention and Treatment of Inflammatory Diseases or Conditions” (MUSC FOUNDATION FOR RESEARCH DEVELOPMENT, priority 2003, published 2007).
# Legend:
# iNOS [1] = experiment: LPS/IFN-induced NO production and iNOS gene expression in primary astrocytes; type: cell-based, rat; details: D-PDMP 0, 10, 25, 50 μM, 0.5 h pretreatment
# [2] = target: T1, lactosylceramide synthase (GalT-2) (Rattus norvegicus, UniProt O88419); experiment: Measurement of lactosylceramide synthesis in primary astrocytes; type: cell-based; details: D-PDMP pretreatment 0.5 hr; 14C-galactose labelling, HPTLC
# T1 construct: endogenous in cells; host or cells: primary astrocytes
# T1 sequence (O88419 1-382): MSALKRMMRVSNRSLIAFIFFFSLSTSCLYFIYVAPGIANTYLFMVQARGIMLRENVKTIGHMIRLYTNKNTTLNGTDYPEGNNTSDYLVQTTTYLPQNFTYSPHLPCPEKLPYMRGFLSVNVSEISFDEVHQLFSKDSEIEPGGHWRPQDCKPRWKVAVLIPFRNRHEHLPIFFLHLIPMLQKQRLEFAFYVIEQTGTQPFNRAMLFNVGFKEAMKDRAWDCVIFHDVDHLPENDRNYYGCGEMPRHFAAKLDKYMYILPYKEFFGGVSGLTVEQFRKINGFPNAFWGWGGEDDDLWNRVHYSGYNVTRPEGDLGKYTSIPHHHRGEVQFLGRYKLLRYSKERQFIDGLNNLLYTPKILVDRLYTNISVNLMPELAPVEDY
# Protocol: Measurement of lactosylceramide synthesis. Cultured cells were incubated in growth medium containing [^14C] galactose (5 ? Ci/ml) for 24 h as described previously. The medium was removed, and the cell monolayer was washed with sterile PBS to remove nonspecifically adsorbed radioactivity and fresh serum free medium was added. After the stimulation of cells with LPS/IFN ? (1 ? g/ml; 10 U/ml) for various durations cells were then harvested and washed with ice cold PBS and lysed by sonication. Following protein quantification, […] of protein was used for extraction of lipids using Chloroform:Methanol:HCl (100:100:1). The organic phase was dried under nitrogen. Glycosphingolipids were resolved by high performance thin layer chromatography using chloroform/methanol/0.25% KCl (70:30:4, v/v/v) as the developing solvent. The chromatographic plate was dried in air and stained with iodine vapors. The gel area corresponding to LacCer was scraped, and radioactivity was measured employing “liquiscint” (NEN Life Science Products) as a scintillating fluid.
# iNOS [3] = experiment: LPS/IFN-induced NO production and iNOS expression in C6 glioma cells; type: cell-based, rat; details: D-PDMP 10, 25, 50 μM, 0.5 hr pretreatment
# Protocol: C6 rat glioma cells obtained from ATCC were maintained in Dulbecco's modified Eagle's medium (DMEM) (GIBCO, CA) containing 10% fetal bovine serum (FBS) (GIBCO) and 10 ? g/ml gentamicin. All the cultured cells were maintained at 37° C. in 5% CO2/95% air. At 80% confluency, the cells were incubated with serum free DMEM medium for 24 h prior to the incubation with LPS/IFN ? and other chemicals. Assay for NO production. Cells were cultured in 12-well plastic tissue culture plates. After the appropriate treatment, production of NO was determined by an assay of the culture supernatant for nitrite (Green et al., 1982). Briefly, 100 μl of culture supernatant was allowed to react with 100 μl of Griess reagent. The optical density of the assay samples was measured spectrophotometrically at 570 nm. Nitrite concentrations were calculated from a standard curve derived from the reaction of NaNO2 in fresh media. Western Blot Analysis. […] The protein concentration of samples was determined with the detergent compatible protein assay reagent (Bio-Rad Laboratories, CA) using bovine serum albumin (BSA) as the standard. Sample was boiled for 3 min with 0.1 volumes of 10% O-mercaptoethanol and 0.5% bromophenol blue mix. Fifty μg of total cellular protein was resolved by electrophoresis in 8 or 12% polyacrylamide gels, electro-transferred to polyvinylidene difluoride (PVDF) filter and blocked with Tween 20 containing Tris-buffered saline [TBST; 10 mM Trizma base (pH 7.4), 1% Tween 20, and 150 mM NaCl] with 5% skim milk. After incubation with antiserum against iNOS (BD PharMingen, CA), or hRas (Upstate Biotechnology, CA), or phospho-specific MAPK (p42/44) (Signal Transduction), in PVDF buffer for 2 h at room temperature, the filters were washed 3 times with TBST buffer and then incubated with horseradish peroxidase conjugated anti-rabbit or mouse IgG for 1 h. The membranes were autoradiographed by using ECL-plus (Amersham Pharmacia Biotech) after washing with TBST buffer. RT-PCR amplification. […] PCR amplification was conducted in 25 ? l of reaction mixture with 1.0 ? l of cDNA, […] and under the manufacturer's Taq polymerase conditions (Takara, […] Shuzo Co. Ltd, Japan). The sequence of primers used for PCR amplification are as follows; iNOS, (Forward-[NT], Reverse-[NT]), GalT-2 (Forward-[NT], Reverse-[NT]), GAPDH (Forward-[NT], Reverse-[NT]).
# small GTPase Ras = experiment: Quantification of Ras activation (GST-Raf-1 Ras binding domain); type: cell-based, rat; details: D-PDMP 50 μM pretreatment; LPS/IFN 5 mins
# Protocol: Quantification of Ras Activation. After stimulation, primary astrocytes in 6 well plates were washed with PBS and lysed in membrane lysis buffer (MLB; 0.5 ml of 25 mM HEPES, pH7.5, 150 mM NaCl, 1% Igepal CA-630, 0.25% sodium deoxycholate, 10% glycerol, 10 mM MgCl2, 1 mM EDTA, 25 mM NaF, 1 mM of sodium orthovanadate, and EDTA free Complete™ protease inhibitor cocktail). After centrifugation (5,000×g) at 4° C. for 5 min, supernatant was used for Ras activation assay. One hundred μg of supernatant was used for binding with agarose conjugated Ras-binding domain (RBD) of Raf-1 which was expressed in BL21 (Invitrogen) Escherichia coli strain transformed by pGEX-2T-GST-RBD in the presence of 0.1 mM of IPTG as described previously (Herrmann et al., 1995). The binding reaction was performed at 4° C. for 30 min in MLB. Following washing with MLB three times, Ras-RBD complex were denatured by adding of 2×SDS sample buffer. Ras protein was identified by western immunoblot analysis with Ras antibodies from Upstate Biotechnology.
compound,measurement,setting,value
"CCCCCCCCCC(=O)NC(CN1CCOCC1)C(O)c1ccccc1.Cl [D-PDMP, D-threo-1-Phenyl-2-decanoylamino-3-morpholino-1-propanol HCl]",production of nitric oxide (NO),"iNOS [1]; LPS/IFN 1 μg/ml, 10 U/ml, 24 hrs",dose dependent decrease
same,mRNA and protein levels of iNOS,"iNOS [1]; LPS/IFN, mRNA 6 hrs, protein 24 hrs",dose dependent decrease
same,increase in LacCer biosynthesis following LPS/IFN stimulation,[2],inhibited this increase
same,LPS/IFN induced NO production,iNOS [3],inhibited
same,iNOS protein and mRNA levels,iNOS [3],inhibited
same,LPS/IFN mediated activation of Ras,small GTPase Ras,reduced
